The values below come from patent US10722514B2 (FLX Bio, Inc., priority 2017, dated 2020).

By pIC50 is commonly meant −log10 of the IC50, conventionally taken in molar units.

pIC50: −log10 of the molar value. Read-outs that look alike come from different tables or passages of the source.

This experiment addresses T1, recombinant full-length USP7 (Homo sapiens, UniProt Q93009).
T1 construct: A 25 μl reaction volume containing recombinant full-length USP7 (62 pM)
As to the kind of experiment: USP7-mediated ubiquitin-rhodamine cleavage assay. The format is biochemical. The note with it: recombinant full-length USP7 62 pM, ubiquitin-rhodamine 100 nM, 1 hour reaction at room temperature. A digest of the protocol:
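After compound and enzyme (62 pM) sat together 30 min at RT, 100 nM fluorogenic ubiquitin-rhodamine substrate was added for 1 h protected from light. Acetic acid quenched the reaction prior to the fluorescence read.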

Where [1] appears, read: 30-minute pre-incubation, read-out: Potency (USP7 IC50).
[2] abbreviates: 30-minute incubation, read-out: Potency (USP7 IC50).
The mark [3] stands for this setting: 30-minute incubation with compound, read-out: Potency: USP7 IC50.

T1 sequence (Q93009 whole entry): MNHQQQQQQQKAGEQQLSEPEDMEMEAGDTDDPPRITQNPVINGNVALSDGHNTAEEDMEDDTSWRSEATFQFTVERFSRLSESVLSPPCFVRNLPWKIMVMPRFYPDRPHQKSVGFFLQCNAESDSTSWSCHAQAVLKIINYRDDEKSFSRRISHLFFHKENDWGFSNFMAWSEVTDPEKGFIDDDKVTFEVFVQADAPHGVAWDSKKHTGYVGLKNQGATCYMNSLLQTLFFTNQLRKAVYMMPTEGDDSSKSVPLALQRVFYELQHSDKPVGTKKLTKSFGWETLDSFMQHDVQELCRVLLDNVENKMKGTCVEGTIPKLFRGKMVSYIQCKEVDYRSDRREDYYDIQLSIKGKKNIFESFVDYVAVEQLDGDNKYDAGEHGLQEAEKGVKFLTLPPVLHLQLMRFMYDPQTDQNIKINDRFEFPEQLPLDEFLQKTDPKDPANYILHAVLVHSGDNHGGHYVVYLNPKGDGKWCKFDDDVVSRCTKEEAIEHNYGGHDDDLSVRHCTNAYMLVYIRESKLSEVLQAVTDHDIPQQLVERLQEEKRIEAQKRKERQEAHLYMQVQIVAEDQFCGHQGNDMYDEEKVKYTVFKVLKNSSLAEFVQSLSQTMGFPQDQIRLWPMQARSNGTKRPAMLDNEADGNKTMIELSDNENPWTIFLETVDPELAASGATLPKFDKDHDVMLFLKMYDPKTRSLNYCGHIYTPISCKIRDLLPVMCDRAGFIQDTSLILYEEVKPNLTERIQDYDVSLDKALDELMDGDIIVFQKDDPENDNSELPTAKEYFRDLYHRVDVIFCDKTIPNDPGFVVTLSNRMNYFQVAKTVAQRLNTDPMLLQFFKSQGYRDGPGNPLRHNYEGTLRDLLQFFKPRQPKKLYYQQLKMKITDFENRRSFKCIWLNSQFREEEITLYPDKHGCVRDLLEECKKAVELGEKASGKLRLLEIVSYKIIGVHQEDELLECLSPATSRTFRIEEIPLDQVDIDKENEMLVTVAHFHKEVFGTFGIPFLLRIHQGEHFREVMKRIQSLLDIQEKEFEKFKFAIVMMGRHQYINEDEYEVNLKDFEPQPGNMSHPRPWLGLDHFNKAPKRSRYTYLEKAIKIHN

In the case of `Cc1cc(Cl)cc(-c2ccnc3cc(Cn4c(=O)ccn(CC(F)(F)F)c4=O)sc23)c1O[C@@H]1CCNC[C@H]1C` [Example 558, 3-[[7-[5-chloro-3-methyl-2-[[(3R,4R)-3-methyl-4-piperidyl]oxy]phenyl]thieno[3,2-b]pyridin-2-yl]methyl]-1-(2,2,2-trifluoroethyl)pyrimidine-2,4-dione], the negative logarithm of the IC50 (pIC50) under setting [1] is > 6.00.

As to `Cc1cc(Cl)cc(-c2ccnc3cc(Cn4c(=O)ccn(CC(F)(F)F)c4=O)sc23)c1OC1CCC(F)(F)CC1` [Example 682, 3-[[7-[5-chloro-2-(4,4-difluorocycllohexoxy)-3-methyl-phenyl]thieno[3,2-b]pyridin-2-yl]methyl]-1-(2,2,2-trifluoroethyl)pyrimidine-2,4-dione], the negative logarithm of the IC50 (pIC50) under setting [2] was > 6.00. As for `Cc1cc(Cl)cc(-c2ccnc3cc(CN4C(=O)CCN(C)C4=O)sc23)c1O[C@H]1CCCNC1` [Example 162, (S)-3-((7-(5-Chloro-3-methyl-2-(piperidin-3-yloxy)phenyl)thieno[3,2-b]pyridin-2-yl)methyl)-1-methyldihydropyrimidine-2,4(1H,3H)-dione], the pIC50 under setting [3] was > 6.00. For `Cc1cc(Cl)cc(-c2ccnc3cc(CN4C(=O)CCC4=O)sc23)c1OC1CC2(CCN2)C1` (stereo not drawn) [Example 439, 1-[[7-[2-(1-azaspiro[3.3]heptan-6-yloxy)-5-chloro-3-methyl-phenyl]thieno[3,2-b]pyridin-2-yl]methyl]pyrrolidine-2,5-dione; 2,2,2-trifluoroacetic acid], under setting [1], the pIC50 was > 6.00.

Turning to `Cc1cc(C(F)(F)F)cc(-c2ccnc3cc(CN4C(=O)CCC4=O)sc23)c1O[C@@H]1CNC[C@@H]1F` [Example 63, 1-((7-(2-(((3R,4S)-4-Fluoropyrrolidin-3-yl)oxy)-3-methyl-5-(trifluoromethyl)phenyl)thieno[3,2-b]pyridin-2-yl)methyl)pyrrolidine-2,5-dione], the pIC50 under setting [3] is > 6.00. For `Cc1cc(C#N)cc(-c2ncnc3cc(CO)sc23)c1O[C@H]1CCCNC1` [Example 183, (S)-3-(6-(Hydroxymethyl)thieno[3,2-d]pyrimidin-4-yl)-5-methyl-4-(piperidin-3-yloxy)benzonitrile], under setting [3], the pIC50 is 5.00 to 6.00. `Cc1cc(Cl)cc(-c2ccnc3cc(Cn4c(=O)ccn(CC(F)(F)F)c4=O)sc23)c1OC1COC1` [Example 671, 3-[[7-[5-chloro-3-methyl-2-(oxetan-3-yloxy)phenyl]thieno[3,2-b]pyridin-2-yl]methyl]-1-(2,2,2-trifluoroethyl)pyrimidine-2,4-dione]: the negative logarithm of the IC50 (pIC50) under setting [2] is > 6.00. Turning to `Cc1cc(Cl)cc(-c2ccnc3cc(Cn4c(=O)ccn(C)c4=O)sc23)c1O[C@@H]1CCN[C@H]1C(=O)O` [Example 602, (2R,3R)-3-[4-chloro-2-methyl-6-[2-[(3-methyl-2,6-dioxo-pyrimidin-1-yl)methyl]thieno[3,2-b]pyridin-7-yl]phenoxy]pyrrolidine-2-carboxylic acid], the negative logarithm of the IC50 (pIC50) under setting [1] is > 6.00. Take `Cc1cc(Cl)cc(-c2ccnc3cc(CN4C(=O)COC4=O)sc23)c1O[C@H]1CCCNC1` [Example 330, 3-[[7-[5-chloro-3-methyl-2-[[(3S)-3-piperidyl]oxy]phenyl]thieno[3,2-b]pyridin-2-yl]methyl]oxazolidine-2,4-dione; 2,2,2-trifluoroacetic acid]: the negative-log IC50 (pIC50) under setting [3] is > 6.00. Regarding `Cc1cc(Cl)cc(-c2ccnc3cc(CN4C(=O)C5C(C4=O)C5(C)C)sc23)c1O[C@@H]1CNC[C@@H]1F` (stereo partly drawn) [Example 312, 3-[[7-[5-chloro-2-[(3R,4S)-4-fluoropyrrolidin-3-yl]oxy-3-methyl-phenyl]thieno[3,2-b]pyridin-2-yl]methyl]-6,6-dimethyl-3-azabicyclo[3.1.0]hexane-2,4-dione], the pIC50 under setting [3] is > 6.00. As for `Cc1cc(Cl)cc(-c2ccnc3cc(Cn4c(=O)ccn(C5CCC5)c4=O)sc23)c1O[C@H]1CCCNC1` [Example 477, 3-[[7-[5-chloro-3-methyl-2-[[(3S)-3-piperidyl]oxy]phenyl]thieno[3,2-b]pyridin-2-yl]methyl]-1-cyclobutyl-pyrimidine-2,4-dione], the pIC50 under setting [1] is > 6.00. `Cc1cc(Cl)cc(-c2ccnc3cc(Cn4c(=O)ccn(C(C)(C)C)c4=O)sc23)c1O[C@H]1CCCNC1` [Example 282]: the pIC50 under setting [3] was > 6.00.

Take `Cc1cc(Cl)cc(-c2ccnc3cc(CN4C(=O)C5CC5C4=O)sc23)c1OC1CCNCC1` (stereo not drawn) [Example 233, 3-((7-(5-Chloro-3-methyl-2-(piperidin-4-yloxy)phenyl)thieno[3,2-b]pyridin-2-yl)methyl)-3-azabicyclo[3.1.0]hexane-2,4-dione]: the pIC50 under setting [3] was > 6.00. For the molecule `Cc1cc(Cl)cc(-c2ccnc3cc(Cn4c(=O)c(F)cn(CC(F)(F)F)c4=O)sc23)c1O[C@H]1CCCNC1` [Example 555, 3-[[7-[5-chloro-3-methyl-2-[[(3S)-3-piperidyl]oxy]phenyl]thieno[3,2-b]pyridin-2-yl]methyl]-5-fluoro-1-(2,2,2-trifluoroethyl)pyrimidine-2,4-dione], the negative-log IC50 (pIC50) under setting [1] was > 6.00. For the molecule `Cc1cc(Cl)cc(-c2ccnc3cc(CN4C(=O)CCC4=O)sc23)c1O[C@@H]1CN[C@@H](C(F)F)C1` [Example 125, 1-((7-(5-Chloro-2-(((3S,5R)-5-(difluoromethyl)pyrrolidin-3-yl)oxy)-3-methylphenyl)thieno[3,2-b]pyridin-2-yl)methyl)pyrrolidine-2,5-dione], under setting [3], the pIC50 is 5.00 to 6.00. For the molecule `Cc1cc(Cl)cc(-c2ncnc3cc(Cn4c(=O)ccn(CC(F)(F)F)c4=O)sc23)c1O[C@@H]1CC[C@@H](N)C1` [Example 603, 3-[[4-[2-[(1R,3R)-3-aminocyclopentoxy]-5-chloro-3-methyl-phenyl]thieno[3,2-d]pyrimidin-6-yl]methyl]-1-(2,2,2-trifluoroethyl)pyrimidine-2,4-dione], the pIC50 under setting [1] was > 6.00. `Cc1cc(Cl)cc(-c2ccnc3cc(CN4C(=O)C5CC5C4=O)sc23)c1O[C@@H]1C[C@H]2CN[C@@H]1C2` (stereo partly drawn) [Example 315, 3-[[7-[2-[[(1S,4R,5R)-3-azabicyclo[2.2.1]heptan-5-yl]oxy]-5-chloro-3-methyl-phenyl]thieno[3,2-b]pyridin-2-yl]methyl]-3-azabicyclo[3.1.0]hexane-2,4-dione]: under setting [3], the negative-log IC50 (pIC50) was > 6.00. Turning to `Cc1cc(Cl)cc(-c2ncnc3cc(CN4C(=O)COC4=O)sc23)c1O[C@@H]1CNC[C@@H]1F` [Example 128, 3-((4-(5-Chloro-2-(((3R,4S)-4-fluoropyrrolidin-3-yl)oxy)-3-methylphenyl)thieno[3,2-d]pyrimidin-6-yl)methyl)oxazolidine-2,4-dione], the negative logarithm of the IC50 (pIC50) under setting [3] is > 6.00. On to `N#Cc1cc(Cl)cc(-c2ccnc3cc(CN4C(=O)CCC4=O)sc23)c1O[C@@H]1CNC[C@@H]1F` [Example 121, 5-Chloro-3-(2-((2,5-dioxopyrrolidin-1-yl)methyl)thieno[3,2-b]pyridin-7-yl)-2-(((3R,4S)-4-fluoropyrrolidin-3-yl)oxy)benzonitrile], for which, under setting [3], the negative-log IC50 (pIC50) was > 6.00.

On to `Cc1cc(Cl)cc(-c2ccnc3cc(CO)sc23)c1O[C@@H]1CCC[C@H]1N` [Example 75, (7-(2-(((1R,2R)-2-Aminocyclopentyl)oxy)-5-chloro-3-methylphenyl)thieno[3,2-b]pyridin-2-yl)methanol], for which the pIC50 under setting [3] is 4.52 to 5.00. Turning to `Cc1cc(Cl)cc(-c2ccnc3cc(CO)sc23)c1O[C@@H]1CNC[C@H]1O` [Example 80, (3R,4R)-4-(4-Chloro-2-(2-(hydroxymethyl)thieno[3,2-b]pyridin-7-yl)-6-methylphenoxy)pyrrolidin-3-ol], the pIC50 under setting [3] was 5.00 to 6.00.
